Read-outs that look alike come from different tables or passages of the source.
How the values were obtained:
A375-NRAS^Q61K cells = experiment: CTGlo Cell Viability Assay, A375-NRAS^Q61K (A375.11) cells, 96 hours; format: cell-based, human; conditions: Homo sapiens, 96 h, A375.11 (A375-NRAS^Q61K) cells; for Emax: lowest % viability achieved
Summary of the method: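 A375 cells carrying BRAF V600E and NRAS Q61K were seeded at 250 cells/well with a 10-point half-log dose series (max 10 μM final). After 96 h at 37 °C, viability was read as ATP luminescence (CellTiter-Glo), background-subtracted and normalized to DMSO (100%). GI50 from 4-parameter fit; Emax is the lowest % viability.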

BRAF V600E = target: T1, BRAF V600E (Homo sapiens, UniProt P15056+Q96SW2, V600E); experiment: BRAF V600E HiBiT Degradation Assay; format: cell-based; conditions: A375.10 cells, BRAF V600E
T1 construct: knock-in of the HiBiT tag to the endogenous BRAF V600E locus; host or cells: A375.10 (A375 clonal line, CRISPR HiBiT knock-in at the endogenous BRAF V600E locus)
T1 sequence (P15056 whole entry V600E): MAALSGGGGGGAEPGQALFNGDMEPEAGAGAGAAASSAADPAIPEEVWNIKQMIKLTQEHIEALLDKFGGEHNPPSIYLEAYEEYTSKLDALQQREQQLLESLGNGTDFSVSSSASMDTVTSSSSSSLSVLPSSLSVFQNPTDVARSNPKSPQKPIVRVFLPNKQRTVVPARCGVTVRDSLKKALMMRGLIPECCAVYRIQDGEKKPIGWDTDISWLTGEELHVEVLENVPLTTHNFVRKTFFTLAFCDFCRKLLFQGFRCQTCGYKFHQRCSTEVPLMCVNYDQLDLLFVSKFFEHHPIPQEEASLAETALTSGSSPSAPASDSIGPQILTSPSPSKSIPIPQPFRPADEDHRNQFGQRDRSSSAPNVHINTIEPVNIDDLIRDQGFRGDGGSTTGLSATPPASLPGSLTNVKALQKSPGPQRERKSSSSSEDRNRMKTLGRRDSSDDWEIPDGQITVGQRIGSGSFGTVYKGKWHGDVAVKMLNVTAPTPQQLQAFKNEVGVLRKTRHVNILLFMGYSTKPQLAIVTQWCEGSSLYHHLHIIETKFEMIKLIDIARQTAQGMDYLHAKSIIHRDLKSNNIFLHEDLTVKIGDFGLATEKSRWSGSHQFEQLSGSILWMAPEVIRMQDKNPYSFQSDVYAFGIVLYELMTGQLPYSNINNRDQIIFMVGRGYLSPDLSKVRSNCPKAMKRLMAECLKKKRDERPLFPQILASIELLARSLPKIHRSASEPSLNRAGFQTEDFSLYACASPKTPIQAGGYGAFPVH
T1 sequence (Q96SW2 whole entry): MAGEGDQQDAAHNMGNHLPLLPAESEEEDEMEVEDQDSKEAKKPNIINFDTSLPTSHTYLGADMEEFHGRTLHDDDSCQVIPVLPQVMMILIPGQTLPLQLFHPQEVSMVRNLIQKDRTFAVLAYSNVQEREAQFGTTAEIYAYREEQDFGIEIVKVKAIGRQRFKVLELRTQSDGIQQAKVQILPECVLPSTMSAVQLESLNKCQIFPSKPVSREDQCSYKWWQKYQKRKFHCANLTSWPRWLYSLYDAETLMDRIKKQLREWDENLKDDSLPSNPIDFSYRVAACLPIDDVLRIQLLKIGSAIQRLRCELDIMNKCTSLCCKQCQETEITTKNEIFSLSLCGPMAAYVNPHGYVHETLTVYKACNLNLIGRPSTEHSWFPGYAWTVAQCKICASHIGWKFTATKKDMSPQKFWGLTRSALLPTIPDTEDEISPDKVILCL
T1 sequence (Q16531 whole entry partner): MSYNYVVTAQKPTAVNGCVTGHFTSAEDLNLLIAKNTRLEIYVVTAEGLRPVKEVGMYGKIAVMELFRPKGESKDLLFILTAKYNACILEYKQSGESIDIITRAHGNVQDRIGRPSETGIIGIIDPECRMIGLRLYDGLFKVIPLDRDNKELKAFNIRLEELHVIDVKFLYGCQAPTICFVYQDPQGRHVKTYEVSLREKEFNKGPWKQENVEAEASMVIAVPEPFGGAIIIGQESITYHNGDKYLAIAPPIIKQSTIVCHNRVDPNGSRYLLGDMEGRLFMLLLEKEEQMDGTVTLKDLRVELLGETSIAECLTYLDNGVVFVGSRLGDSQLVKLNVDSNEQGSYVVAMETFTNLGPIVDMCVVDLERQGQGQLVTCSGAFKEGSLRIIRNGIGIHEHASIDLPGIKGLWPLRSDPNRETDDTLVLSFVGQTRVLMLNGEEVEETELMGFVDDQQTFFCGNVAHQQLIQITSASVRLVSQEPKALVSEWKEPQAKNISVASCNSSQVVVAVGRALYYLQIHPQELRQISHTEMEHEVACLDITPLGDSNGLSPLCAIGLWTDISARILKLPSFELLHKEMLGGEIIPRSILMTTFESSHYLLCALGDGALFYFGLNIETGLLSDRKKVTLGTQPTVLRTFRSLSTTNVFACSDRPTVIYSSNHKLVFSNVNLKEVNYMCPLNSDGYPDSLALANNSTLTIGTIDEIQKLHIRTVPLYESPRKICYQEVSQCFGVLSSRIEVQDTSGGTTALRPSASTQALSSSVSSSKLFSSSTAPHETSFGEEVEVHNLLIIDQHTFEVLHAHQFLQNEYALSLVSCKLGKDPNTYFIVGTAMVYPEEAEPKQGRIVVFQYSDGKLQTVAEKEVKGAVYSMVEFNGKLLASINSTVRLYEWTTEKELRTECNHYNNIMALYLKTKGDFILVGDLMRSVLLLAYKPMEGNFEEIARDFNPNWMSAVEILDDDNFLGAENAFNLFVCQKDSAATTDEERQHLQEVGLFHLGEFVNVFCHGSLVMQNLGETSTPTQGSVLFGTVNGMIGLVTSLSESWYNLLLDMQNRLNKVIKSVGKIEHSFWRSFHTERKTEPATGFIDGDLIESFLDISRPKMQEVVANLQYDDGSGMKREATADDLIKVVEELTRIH
Summary of the method: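 Endogenous HiBiT knock-in on BRAF V600E in A375 cells (clone A375.10); 11-point half-log series, top 10 μM, 2, 6 or 24 h at 37° C. Lytic HiBiT luminescence, background-subtracted, normalized to DMSO; 4-parameter fit gives DC50, Emax (residual protein) and IP (inflection point).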

[1] = 2 hours, inflection point, read-out: HiBiT-Degradation A375.10 BRAF 2 hours IP
[2] = 2 hours, read-out: HiBiT-Degradation A375.10 BRAF 2 hours DC50
[3] = 2 hours, residual protein remaining, read-out: HiBiT-Degradation A375.10 BRAF 2 hours Emax
[4] = HiBiT, 24 hours, read-out: HiBiT-Degradation A375.10 BRAF 24 hours DC50
[5] = HiBiT, 24 hours, read-out: HiBiT-Degradation A375.10 BRAF 24 hours Emax
[6] = HiBiT, 24 hours, read-out: HiBiT-Degradation A375.10 BRAF 24 hours IP

SMILES	GI50 (A375-NRAS^Q61K cells) [nM]	DC50 (BRAF V600E; [1]) [nM]	DC50 (BRAF V600E; [2]) [nM]	Emax (BRAF V600E; [3]) [%]	DC50 (BRAF V600E; [4]) [nM]	Emax (BRAF V600E; [5]) [%]	DC50 (BRAF V600E; [6]) [nM]	Emax (A375-NRAS^Q61K cells) [%]
CCN(C)S(=O)(=O)Nc1ccc(F)c(C(=O)c2ccc3ncn(C4CC5(C4)CN(C4CC6(C4)CN(c4cc7c(cc4F)c(N4CCC(=O)NC4=O)nn7C)C6)C5)c(=O)c3c2)c1F (stereo not drawn) [Compound 306, 3-[2-[2-[3-(2,4-dioxohexahydropyrimidin-1-yl)-5-fluoro-1-methyl-indazol-6-yl]-2-azaspiro[3.3]heptan-6-yl]-2-azaspiro[3.3]heptan-6-yl]-6-[3-[[ethyl(methyl)sulfamoyl]amino]-2,6-difluoro-benzoyl]-4-oxo-quinazoline]	> 10000	< 1000	< 1000	50 to 90				50 to 90
CCN(C)S(=O)(=O)Nc1ccc(F)c(Oc2ccc3ncn([C@H]4COC5(C4)CN(C4CCN(c6cc7c(cc6F)c(N6CCC(=O)NC6=O)nn7C)CC4)C5)c(=O)c3c2)c1C#N [Compound 309, (7R)-7-[6-[2-cyano-3-[[ethyl(methyl)sulfamoyl]amino]-6-fluoro-phenoxy]-4-oxo-quinazolin-3-yl]-2-[1-[3-(2,4-dioxohexahydropyrimidin-1-yl)-5-fluoro-1-methyl-indazol-6-yl]-4-piperidyl]-5-oxa-2-azaspiro[3.4]octane]	> 10000	< 1000	> 10000	50 to 90	< 1000	< 50	< 1000	50 to 90
CCN(C)S(=O)(=O)Nc1ccc(F)c(Oc2ccc3ncn([C@@H]4COC5(C4)CN(C4CC6(C4)CN(c4cc7c(cc4F)c(N4CCC(=O)NC4=O)nn7C)C6)C5)c(=O)c3c2)c1C#N [Compound 311, (7S)-7-[6-[2-cyano-3-[[ethyl(methyl)sulfamoyl]amino]-6-fluoro-phenoxy]-4-oxo-quinazolin-3-yl]-2-[2-[3-(2,4-dioxohexahydropyrimidin-1-yl)-5-fluoro-1-methyl-indazol-6-yl]-2-azaspiro[3.3]heptan-6-yl]-5-oxa-2-azaspiro[3.4]octane]	1000 to 10000	< 1000	1000 to 10000	50 to 90	< 1000	< 50	< 1000	50 to 90
CCN(C)S(=O)(=O)Nc1ccc(F)c(Oc2ccc3ncn(C4CC5(C4)CN(C4CC6(CCN(c7cc8c(cc7F)c(N7CCC(=O)NC7=O)nn8C)CC6)C4)C5)c(=O)c3c2)c1C#N (stereo not drawn) [Compound 314, 6-[2-cyano-3-[[ethyl(methyl)sulfamoyl]amino]-6-fluoro-phenoxy]-3-[2-[7-[3-(2,4-dioxohexahydropyrimidin-1-yl)-5-fluoro-1-methyl-indazol-6-yl]-7-azaspiro[3.5]nonan-2-yl]-2-azaspiro[3.3]heptan-6-yl]-4-oxo-quinazoline]	< 1000	< 1000	< 1000	< 50	< 1000	< 50	< 1000	50 to 90

Further lines, with some results ahead:

GI50 (A375-NRAS^Q61K cells) [nM]	DC50 (BRAF V600E; [1]) [nM]	DC50 (BRAF V600E; [2]) [nM]	Emax (BRAF V600E; [3]) [%]	DC50 (BRAF V600E; [4]) [nM]	Emax (BRAF V600E; [5]) [%]	DC50 (BRAF V600E; [6]) [nM]	SMILES	Emax (A375-NRAS^Q61K cells) [%]
1000 to 10000	< 1000	< 1000	< 50	< 1000	< 50	< 1000	CCN(C)S(=O)(=O)Nc1ccc(F)c(Oc2ccc3ncn([C@H]4COC5(C4)CN(C4CC6(C4)CN(c4cc7c(cc4F)c(N4CCC(=O)NC4=O)nn7C)C6)C5)c(=O)c3c2)c1C#N [Compound 310, (7R)-7-[6-[2-cyano-3-[[ethyl(methyl)sulfamoyl]amino]-6-fluoro-phenoxy]-4-oxo-quinazolin-3-yl]-2-[2-[3-(2,4-dioxohexahydropyrimidin-1-yl)-5-fluoro-1-methyl-indazol-6-yl]-2-azaspiro[3.3]heptan-6-yl]-5-oxa-2-azaspiro[3.4]octane]	50 to 90
< 1000	< 1000	< 1000	50 to 90	< 1000	< 50	< 1000	CCN(C)S(=O)(=O)Nc1ccc(F)c(Oc2ccc3ncn(C4CC5(C4)CN(CC4CN(c6cc7c(cc6F)c(N6CCC(=O)NC6=O)nn7C)C4)C5)c(=O)c3c2)c1C#N [Compound 313]	50 to 90

Reference: patent US20260297060A1, “COMPOUNDS FOR THE DEGRADATION OF MUTANT BRAF” (C4 THERAPEUTICS, INC., priority 2023, published 2026)
